Data as given in article PMC9763021, “Comprehensive Assessment of Biomolecular Interactions of Morpholine-Based Mixed Ligand Cu(II) and Zn(II) Complexes of 2,2′-Bipyridine as Potential Anticancer and SARS-CoV-2 Agents: A Synergistic Experimental and Structure-Based Virtual Screening” (Bioinorganic Chemistry and Applications, 2022).

Assays:
CT-DNA = assay: DNA binding by cyclic voltammetry; design: species or system calf thymus; conditions: for K[red]/K[oxi], (calcd): Nernst equation; for K[red]/K[oxi], found (I): from method I; for S (bp), binding site size: method II; for Kb method I, (oxi): oxidation; for Kb method I, red: reduction; for Es° = (Eb° − Ef°): shift of formal potential on DNA binding
Method: The CV titration for free substances was conducted at 10 μM at 25°C in the presence of Tris-HCl buffer solution (pH: 7.4). While CT-DNA increases (0–10 μM) in each sample solution, a shift in potential, including variations in the peak currents of anodic and cathodic sides, has been monitored.
The CV technique is one of the most important tools for investigating the DNA-complex adduct's binding mechanism. The CV properties of all test samples in the presence and absence of DNA were executed at a scan rate (v) 0.1 Vs^−1 with a potential range of +2 to −2 in a Tris-HCl (5 mM)/NaCl (50 mM) (pH = 7.2) solution. The M^1+/M^2+ redox couple is caused by complexes that reveal a single anodic and cathodic peak. […] (Figure S29 and Table 6).
ΔEP is peak-to-peak separation = (EPa − EPc); E°(or) E1/2 is denoted as formal electrode potential = 1/2 (EPa + EPc); Es°=(Eb° − Ef°)Eb° and Ef° are represented as the formal electrode potential of the M^1+/M^2+ couple in the bound and free forms, respectively. Es° = +19 mV (HL), +34 mV (1a), and +31 mV (2a). Ipa is anodic peak current, Ipc is cathodic peak current. K^1+ is binding constant of reduction process, K^2+ is binding constant of oxidation process, S is represented as binding site size of base pairs (bp) with a molecule of complex, Scan rate is 100 mV·s^−1, binding constant (Kb) values observed from the linear plots of log (1/[DNA]) vs. log (I/I0 − I) for oxidation and reduction, (I0 − IDNA)/IDNA = Cp/Cf versus [DNA] and Ip ^2 versus (Ipo ^2 −Ip ^2 )/[DNA] by methods I, II, and III, respectively.(24) DiffusioncoefficientD0=7.51×10^−5 SlopelogI0 −I/I=log DNA+logKb, where I0 and I are represented as the peak currents of the compound in the absence and presence of DNA.(25) log DNA=logI0 −I/I+log1/Kb log1/DNA=logI/I0−I+logKb, (26) I0 −I/I=KbDNA, (27) I0 −I/I=Cb/Cf, where Cf and Cb are denoted as the free substance concentration and DNA-interacted compound, respectively. (29) was obtained by comparing equations (27) and (28).(28) Cb/Cf=KbDNA, (29) Cb/Cf=Kbfreebasrpairs/S , (30) Cb/Cf=KbDNA/2 S +1.
S is denoted as binding site size (bp), and Kb are estimated from (31) with the help of S = (intercept/4)^1/2 and (Kb = 2S (slope/intercept), respectively. Nernst equations are as follows:(31) Es°=Eb°−Ef°=0.0591 /n logKred/Koxi, (32) Kred/Koxi=Ant. log nEb°−Ef°/0.0591.
E 1/2 or Eb° and Ef° are the formal electrode potentials of the M^1+/M^2+ couple in their bound and free forms, respectively.(33) Ip 2 =1/KbDNAIp0 2 −Ip 2 +Ip0 2 −DNA, where Ipo and Ip are denoted as the peak currents of the complexes (1–3) in the absence and presence of DNA.(34) Ipa=2.69×10^5 n^3/2 α^1/2 AC0 ∗D0 1/2 v^1/2 , (35) Ipa=13314.7D0 1/2 v^1/2 , where Ipa is denoted as the anodic peak current in amperes, n is represented as the number of electrons participating in the redox (M^1+/M^2+) process (n = 1), charge transfer coefficient (or) activation coefficient (α)≈0.5 for quasireversible systems, which also calculated from Bard–Faulkner relation(35a) α=47.7/EPa−EP/2.
C0^∗ ⟶ Bulk concentration of the compound, A is denoted as the cross-sectional area of the working electrode (glassy carbon) in cm^2 (A∼0.07 cm^2), D0 is denoted as diffusion coefficient (cm^2 s^−1) of the M^1+/M^2+ couple in the free and bound forms, respectively, and v is denoted as the potential scan rate at 0.1 Volt·s^−1. While the substances often bind to deoxyribonucleic acid through intercalation, the peak potential shifts in a positive direction. When the compounds bind to deoxyribonucleic acid via minor or major grooves or electrostatic attractions, the peak potential shifts occur in a negative direction. […]

Aspergillus niger = assay: Agar disc diffusion, strain H; assay type: cell-based; design: (inhibition %): concentration or dose not given beside the values; conditions: for diameter of the clear zone inhibition: control = 6 mm
Method: (§1) In-vitro antimicrobial properties were evaluated for all samples by the agar disc diffusion method towards different fungal and bacterial strains. Additionally, the reported inhibition zone values were comparatively analyzed with the standard antifungal drugs ketoconazole and amphotericin B as well as the standard antibiotic medications streptomycin and amikacin.
(§2) The current research has a curious focus on the in vitro antimicrobial properties of biological systems because these studies are crucial for developing effective antibacterial and antifungal medications. […] It can also be spelled out based on the chelation theory proposed by Overtone and Tweedy. Chelation theory points out that the partial exchanging of the positive charge of the metal center with donor moieties, and overlap of the ligand orbitals will reduce the greater degree of the metal ion's polarity, which ultimately rises the delocalization of π and d electrons over the full chelated ring system. By raising the size of the metal ion due to the retarding of polarization, chelation may also enhance the complexes' lipophilic characteristics, which further stimulate the lipid membrane permeability and break down the bacteria' enzymes responsible for cell wall formation, therefore slowing down the regular cell processes. By preventing the production of cell walls/proteins/DNA, including by obstructing folate metabolism and the cytoplasmic membrane, antimicrobial drugs frequently either fully eliminate microbes or only prevent their cell growth. Additionally, the samples' mode of action may be employed in disrupting the cell's respiration process by forming an H-bond during the morpholine-fused iminic group coordinated with the active metal center of its components, inhibiting proliferation of the cell. […] The difference in the antimicrobial efficacy of some of the compounds towards various microorganisms influences on the impermeability of the cells of the germs or the diversity of ribosomes of the microbes. The % of the inhibition of all substances is estimated from (45) (Table 9).
(§3) (A, B, C, D, and E are represented as gram negative bacteria species Escherichia coli, Salmonella enteric serovar typhi, Salmonella enteric serovar typhi, Pseudomonas aeruginosa, and Shigella flexneri, respectively. F & G are denoted as gram positive bacteria species Staphylococcus aureus and Bacillus cereus. H, I, and J are represented as fungal strains Aspergillus niger, Candida albicans, and Mucor indicus. Standard drugs for bacterial strains: Amikacin & Streptomycin Standard drugs for fungal strains: Ketoconazole and Amphotericin B. [Control (DMSO) = 6 mm].(44) Inhibition %=T–C/T×100, where T and C are represented as the diameter of microbial growth of the sample plates and the control plate (6 mm), respectively. Error limits ±2.5–5.0% (P ≤ 0.05).

[1] = system: Salmonella enteric serovar typhi; assay: Agar disc diffusion, strain C; assay type: cell-based; conditions: for diameter of the clear zone inhibition: control = 6 mm
Method: as §1, §2, §3

| SMILES | Kb method II (CT-DNA) [M⁻¹] | Kb method III (CT-DNA) [M⁻¹] | K[red]/K[oxi], (calcd) (CT-DNA) | K[red]/K[oxi], found (I) (CT-DNA) | S (bp), binding site size (CT-DNA) [bp] | Kb method I, (oxi) (CT-DNA) [M⁻¹] | Kb method I, red (CT-DNA) [M⁻¹] | Es° = (Eb° − Ef°) (CT-DNA) | (inhibition %) (Aspergillus niger) [%] | diameter of the clear zone inhibition (Aspergillus niger) [mm] | (inhibition %) [1] [%] | diameter of the clear zone inhibition [1] [mm] |
| --- | --- | --- | --- | --- | --- | --- | --- | --- | --- | --- | --- | --- |
| [O-]c1ccccc1N=Cc1ccc(N2CCOCC2)cc1.[O-]c1ccccc1N=Cc1ccc(N2CCOCC2)cc1.[Zn+2].c1ccc(-c2ccccn2)nc1 [(2a), [Zn(L)2(bpy)]] | 27693 | 18486 | 3.34 | 0.8268 | 0.270 | 24610 | 20348 | +31 mV | 33 | 09 | 33 | 09 |
| [Cu+2].[O-]c1ccccc1N=Cc1ccc(N2CCOCC2)cc1.[O-]c1ccccc1N=Cc1ccc(N2CCOCC2)cc1.c1ccc(-c2ccccn2)nc1 [(1a), [Cu(L)2(bpy)]] | 70773 | 21567 | 3.76 | 0.8628 | 0.123 | 25330 | 21854 | +34 mV | 45 | 11 | 50 | 12 |
| Oc1ccccc1N=Cc1ccc(N2CCOCC2)cc1 [(HL), 2-(4-morpholinobenzylideneamino)phenol] | 2443 | 4837 | 2.0964 | 0.7214 | 0.452 | 5280 | 3809 | +19 mV | 40 | 10 | 45 | 11 |
